Test results taken from patent publication US20230212142A9, “Substituted 5-Cyclopropyl-1H-pyrazole-3-yl-amine Derivatives as Selective CDK12/13 Inhibitors” (Aurigene Discovery Technologies Limited, priority 2019, published 2023).

What was measured:
CDK13 = CDK13 (Homo sapiens, UniProt Q14004); test: Biochemical assay for CDK13 (LanthaScreen Eu Kinase Binding Assay); settings: kinase tracer 236 100 nM, CDK13 5 nM
Experimental: LanthaScreen Eu Kinase Binding Assays are based on the binding and displacement of Alexa Fluor 647-labeled, ATP-competitive kinase inhibitor scaffold (kinase tracer) to the kinase of interest. Binding of the kinase tracer 236 (100 nM) to the CDK13 (5 nM) kinase is detected using a europium-labelled anti- GST tag antibody (2 nM), which binds to the kinase. Simultaneous binding of the tracer and antibody to the kinase results in a high degree of FRET (fluorescence resonance energy transfer) from the europium (Eu) donor fluorophore to the Alexa Fluor™ 647 acceptor fluorophore on the kinase tracer. Binding of an inhibitor to the kinase competes for binding with the tracer, resulting in a loss of FRET signal.

CDK7 = CDK7 (Homo sapiens, UniProt P50613); test: Biochemical assay for CDK7 (LANCE TR-FRET, ULight-MBP phosphorylation); settings: CDK7 10 nM, ATP 1 mM/100 μM, 60 min pre-incubation
Experimental: The inhibitory activity of the test compounds was assessed by the LANCE TR-FRET assay, which detects the ATP-dependent phosphorylation of an ULight-myelin basic protein (MBP) substrate peptide (100 nM) by CDK7 (10 nM). Briefly, the enzyme reaction was run in reaction buffer (20 mM HEPES (pH 7.5), 10 mM MgCl2, 0.01% Triton x, 100 μM Sodium Orthovanadate, 1 mM DTT). The assay was performed in 384-well plate. The end concentration of the ATP substrate was 1 mM/100 μM, and that of the ULight-MBP substrate peptide was 100 nM, and of CDK7 was 10 nM. Pre-incubation of the compound and enzyme was performed for 60 min at room temperature. After 60 min incubation at room temperature, the reaction was terminated by the addition of 40 mM EDTA and 1 nM Eu-labeled anti-phospho-MBP-binding protein antibody in the buffer. Time-resolved fluorescence (excitation, 320 nm; emission donor, 615 nm; emission acceptor, 665 nm) was monitored by using 2030 multilabel reader Victor5 (PerkinElmer). The readout was calculated as (acceptor counts/donor counts)×1000. The IC50 values were derived by fitting a sigmoidal dose-response curve to a plot of assay readout over inhibitor concentration. All fits were computed with the program Prism 5.03 (Graph Pad Software, San Diego, Calif.).

CDK12 = CDK12 (Homo sapiens, UniProt Q9NYV4); test: Biochemical assay for CDK12 (kinase-tagged phage / qPCR competition binding); set-up: host or cells: E. coli BL21-derived host (T7 phage display) or HEK-293
Experimental: Kinase-tagged T7 phage strains were grown in parallel in 24-well blocks in an E. coli host derived from the BL21 strain. E. coli were grown to log-phase and infected with T7 phage from a frozen stock (multiplicity of infection=0.4) and incubated with shaking at 32° C. until lysis (90-150 minutes). The lysates were centrifuged (6,000×g) and filtered (0.2 μm) to remove cell debris. The remaining kinases were produced in HEK-293 cells and subsequently tagged with DNA for qPCR detection. Streptavidin-coated magnetic beads were treated with biotinylated small molecule ligands for 30 minutes at room temperature to generate affinity resins for kinase assays. The liganded beads were blocked with excess biotin and washed with blocking buffer (SeaBlock (Pierce), 1% BSA, 0.05% Tween 20, 1 mM
DTT) to remove unbound ligand and to reduce non-specific phage binding. Binding reactions were assembled by combining kinases, liganded affinity beads, and test compounds in lx binding buffer (20% SeaBlock, 0.17×PBS, 0.05% Tween 20, 6 mM DTT). Test compounds were prepared as 40× stocks in 100% DMSO and directly diluted into the assay. All reactions were performed in polypropylene 384-well plates in a final volume of 0.02 ml. The assay plates were incubated at room temperature with shaking for 1 hour and the affinity beads were washed with wash buffer (1 PBS, 0.05% Tween 20). The beads were then re-suspended in elution buffer (1× PBS, 0.05% Tween 20, 0.5 μM non-biotinylated affinity ligand) and incubated at room temperature with shaking for 30 minutes. The kinase concentration in the eluates was measured by qPCR.

Chain of CDK12 (Q9NYV4 whole entry, species assumed): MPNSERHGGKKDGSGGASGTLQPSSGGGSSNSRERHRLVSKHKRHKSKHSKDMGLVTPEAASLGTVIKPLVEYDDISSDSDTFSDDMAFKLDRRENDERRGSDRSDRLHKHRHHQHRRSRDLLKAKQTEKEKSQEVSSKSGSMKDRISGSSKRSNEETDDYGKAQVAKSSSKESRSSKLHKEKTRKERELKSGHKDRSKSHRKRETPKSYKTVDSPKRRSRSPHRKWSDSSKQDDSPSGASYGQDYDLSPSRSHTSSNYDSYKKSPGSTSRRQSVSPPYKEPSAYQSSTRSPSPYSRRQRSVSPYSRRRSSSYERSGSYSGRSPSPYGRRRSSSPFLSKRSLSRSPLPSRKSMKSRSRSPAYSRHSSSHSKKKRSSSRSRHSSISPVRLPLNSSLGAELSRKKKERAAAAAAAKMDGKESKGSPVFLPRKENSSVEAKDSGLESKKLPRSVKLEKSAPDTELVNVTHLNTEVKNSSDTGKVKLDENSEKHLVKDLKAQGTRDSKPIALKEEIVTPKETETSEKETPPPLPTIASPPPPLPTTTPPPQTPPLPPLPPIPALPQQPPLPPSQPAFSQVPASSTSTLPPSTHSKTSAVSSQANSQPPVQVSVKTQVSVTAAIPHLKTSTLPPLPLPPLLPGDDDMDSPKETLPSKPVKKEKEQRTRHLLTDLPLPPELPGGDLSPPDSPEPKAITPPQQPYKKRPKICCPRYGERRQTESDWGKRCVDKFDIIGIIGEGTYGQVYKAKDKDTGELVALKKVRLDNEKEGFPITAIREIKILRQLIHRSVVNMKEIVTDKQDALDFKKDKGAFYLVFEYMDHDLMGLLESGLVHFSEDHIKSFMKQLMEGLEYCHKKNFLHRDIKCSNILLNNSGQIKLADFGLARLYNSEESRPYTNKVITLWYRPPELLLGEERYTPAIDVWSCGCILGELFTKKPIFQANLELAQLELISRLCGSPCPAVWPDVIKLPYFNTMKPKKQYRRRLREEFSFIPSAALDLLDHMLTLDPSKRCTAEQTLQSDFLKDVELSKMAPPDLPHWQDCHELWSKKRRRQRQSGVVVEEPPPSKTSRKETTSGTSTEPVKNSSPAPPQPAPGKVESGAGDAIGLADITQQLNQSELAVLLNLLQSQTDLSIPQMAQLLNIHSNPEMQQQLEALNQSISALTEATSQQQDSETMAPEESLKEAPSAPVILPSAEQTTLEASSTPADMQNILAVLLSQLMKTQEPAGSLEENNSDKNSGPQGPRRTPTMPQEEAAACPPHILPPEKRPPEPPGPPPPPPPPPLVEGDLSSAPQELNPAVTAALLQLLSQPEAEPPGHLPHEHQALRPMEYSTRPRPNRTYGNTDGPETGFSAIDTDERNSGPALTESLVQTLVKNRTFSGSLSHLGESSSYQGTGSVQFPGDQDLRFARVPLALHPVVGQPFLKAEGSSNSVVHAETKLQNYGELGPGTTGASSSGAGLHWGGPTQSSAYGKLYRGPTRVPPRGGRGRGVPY
Chain of CDK7 (P50613 whole entry, species assumed): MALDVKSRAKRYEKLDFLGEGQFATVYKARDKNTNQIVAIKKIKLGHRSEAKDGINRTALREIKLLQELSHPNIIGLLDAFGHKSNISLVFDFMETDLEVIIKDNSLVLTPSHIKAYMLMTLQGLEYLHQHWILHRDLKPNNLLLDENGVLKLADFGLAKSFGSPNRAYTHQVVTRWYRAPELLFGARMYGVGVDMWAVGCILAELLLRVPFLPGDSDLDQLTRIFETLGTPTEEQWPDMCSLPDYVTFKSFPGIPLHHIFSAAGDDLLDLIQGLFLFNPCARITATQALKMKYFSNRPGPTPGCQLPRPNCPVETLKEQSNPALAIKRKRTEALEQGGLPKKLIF
Chain of CDK7 (P51946 whole entry partner, species assumed): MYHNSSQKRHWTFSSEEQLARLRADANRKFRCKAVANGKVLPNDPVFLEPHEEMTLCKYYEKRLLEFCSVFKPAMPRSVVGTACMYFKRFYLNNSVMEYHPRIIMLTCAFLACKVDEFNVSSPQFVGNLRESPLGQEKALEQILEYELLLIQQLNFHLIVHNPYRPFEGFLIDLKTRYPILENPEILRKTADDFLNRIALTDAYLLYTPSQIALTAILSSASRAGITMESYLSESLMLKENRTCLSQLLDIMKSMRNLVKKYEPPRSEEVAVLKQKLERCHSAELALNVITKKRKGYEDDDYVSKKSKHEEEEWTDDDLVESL
Chain of CDK7 (P51948 whole entry partner, species assumed): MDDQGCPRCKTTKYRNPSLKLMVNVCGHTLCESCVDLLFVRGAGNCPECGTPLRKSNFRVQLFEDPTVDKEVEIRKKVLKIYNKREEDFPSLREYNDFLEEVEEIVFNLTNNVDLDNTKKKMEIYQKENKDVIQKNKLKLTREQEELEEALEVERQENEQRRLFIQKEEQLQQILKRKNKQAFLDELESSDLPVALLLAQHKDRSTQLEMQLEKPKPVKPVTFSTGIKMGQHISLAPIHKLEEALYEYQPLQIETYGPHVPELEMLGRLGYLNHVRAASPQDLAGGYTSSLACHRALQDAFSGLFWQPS
Chain of CDK13 (Q14004 whole entry, species assumed): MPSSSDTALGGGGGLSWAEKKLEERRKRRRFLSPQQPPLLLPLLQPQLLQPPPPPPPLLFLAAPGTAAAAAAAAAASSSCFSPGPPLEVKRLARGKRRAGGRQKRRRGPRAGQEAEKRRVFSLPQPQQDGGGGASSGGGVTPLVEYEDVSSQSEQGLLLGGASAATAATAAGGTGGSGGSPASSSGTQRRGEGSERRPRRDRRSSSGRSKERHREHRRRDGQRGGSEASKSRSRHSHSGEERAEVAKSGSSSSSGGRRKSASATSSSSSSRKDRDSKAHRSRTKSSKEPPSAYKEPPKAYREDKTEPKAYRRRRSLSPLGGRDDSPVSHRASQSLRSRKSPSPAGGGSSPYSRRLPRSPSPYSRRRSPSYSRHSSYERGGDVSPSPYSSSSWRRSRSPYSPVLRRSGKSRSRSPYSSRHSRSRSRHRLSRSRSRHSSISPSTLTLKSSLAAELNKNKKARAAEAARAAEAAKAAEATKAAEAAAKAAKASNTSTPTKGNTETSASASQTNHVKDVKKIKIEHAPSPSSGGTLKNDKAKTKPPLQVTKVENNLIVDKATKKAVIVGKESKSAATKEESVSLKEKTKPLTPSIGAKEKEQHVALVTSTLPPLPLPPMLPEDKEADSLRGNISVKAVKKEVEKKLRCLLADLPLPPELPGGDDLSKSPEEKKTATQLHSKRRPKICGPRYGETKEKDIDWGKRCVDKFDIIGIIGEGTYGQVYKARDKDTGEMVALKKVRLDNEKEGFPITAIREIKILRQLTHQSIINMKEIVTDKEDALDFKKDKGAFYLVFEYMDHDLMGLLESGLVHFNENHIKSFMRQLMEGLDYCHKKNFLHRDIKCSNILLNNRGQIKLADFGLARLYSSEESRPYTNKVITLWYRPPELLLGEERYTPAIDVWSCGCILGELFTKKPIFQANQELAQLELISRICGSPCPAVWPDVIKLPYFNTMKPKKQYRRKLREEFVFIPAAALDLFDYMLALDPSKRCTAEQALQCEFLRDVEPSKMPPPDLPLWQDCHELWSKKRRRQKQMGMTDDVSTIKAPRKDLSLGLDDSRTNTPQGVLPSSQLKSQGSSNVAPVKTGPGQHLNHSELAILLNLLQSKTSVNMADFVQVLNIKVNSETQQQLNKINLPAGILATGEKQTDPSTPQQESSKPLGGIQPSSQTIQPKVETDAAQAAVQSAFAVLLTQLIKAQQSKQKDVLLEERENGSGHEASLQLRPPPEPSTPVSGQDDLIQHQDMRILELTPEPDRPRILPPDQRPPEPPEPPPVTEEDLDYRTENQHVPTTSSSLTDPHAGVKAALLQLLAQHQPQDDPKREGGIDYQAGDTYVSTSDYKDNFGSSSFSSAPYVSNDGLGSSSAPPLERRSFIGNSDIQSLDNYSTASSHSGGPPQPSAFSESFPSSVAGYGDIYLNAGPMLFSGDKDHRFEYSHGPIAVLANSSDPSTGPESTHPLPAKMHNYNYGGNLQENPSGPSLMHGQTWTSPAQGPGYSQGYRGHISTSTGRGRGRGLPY
Chain of CDK13 (O75909 whole entry partner, species assumed): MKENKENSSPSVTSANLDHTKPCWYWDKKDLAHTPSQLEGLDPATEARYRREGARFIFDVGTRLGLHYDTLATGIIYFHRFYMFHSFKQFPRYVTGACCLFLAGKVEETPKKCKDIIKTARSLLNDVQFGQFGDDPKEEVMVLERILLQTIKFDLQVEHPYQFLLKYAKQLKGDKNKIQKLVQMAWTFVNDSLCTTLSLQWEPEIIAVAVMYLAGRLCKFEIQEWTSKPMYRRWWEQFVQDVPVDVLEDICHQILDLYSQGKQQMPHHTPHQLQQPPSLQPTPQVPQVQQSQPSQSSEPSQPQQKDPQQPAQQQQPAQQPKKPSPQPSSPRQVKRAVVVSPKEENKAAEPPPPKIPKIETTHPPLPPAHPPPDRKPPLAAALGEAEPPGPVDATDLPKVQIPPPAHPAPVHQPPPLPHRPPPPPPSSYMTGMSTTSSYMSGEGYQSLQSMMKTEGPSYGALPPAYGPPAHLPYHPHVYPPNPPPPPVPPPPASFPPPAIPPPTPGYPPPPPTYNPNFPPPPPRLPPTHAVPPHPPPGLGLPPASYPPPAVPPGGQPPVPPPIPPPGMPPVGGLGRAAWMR

SMILES	IC50 (CDK13) [nM]	IC50 (CDK7) [nM]	Kd (CDK12) [nM]
C=CC(=O)NCc1ccc(C(C)C(=O)Nc2cc(C3CC3)[nH]n2)cc1 (racemic) [Compound 23, N-(4-(1-((5-cyclopropyl-1H-pyrazol-3-yl)amino)-1-oxopropan-2-yl)benzyl)acrylamide]	280	> 10000	50 to 500
CC(C(=O)Nc1cc(C2CC2)[nH]n1)c1ccc(-c2ccc(NC(=O)/C=C/CN3CCOCC3)nc2)cc1 (single isomer, unassigned) [Compound 6, (E)-N-(5-(4-(1-((5-cyclopropyl-1H-pyrazol-3-yl)amino)-1-oxopropan-2-yl)phenyl)pyridin-2-yl)-4-morpholinobut-2-enamide]	500	> 10000	50 to 500
C=CC(=O)NCc1ccc(-c2ccc(C(C)C(=O)Nc3cc(C4CC4)[nH]n3)cc2)cc1 (single isomer, unassigned) [Compound 10, N-((4′-(1-((5-cyclopropyl-1H-pyrazol-3-yl)amino)-1-oxopropan-2-yl)-[1,1′-biphenyl]-4-yl)methyl)acrylamide]	804	> 10000	> 500
CC(C(=O)Nc1cc(C2CC2)[nH]n1)c1ccc(-c2ccc(CNC(=O)/C=C/CN3CCOCC3)nc2)cc1 (single isomer, unassigned) [Compound 13, (E)-N-((5-(4-(1-((5-cyclopropyl-1H-pyrazol-3-yl)amino)-1-oxopropan-2-yl)phenyl)pyridin-2-yl)methyl)-4-morpholinobut-2-enamide]	2060	> 10000	> 500
C=CC(=O)NCc1ccc(C(C)C(=O)Nc2cc(C3CC3)[nH]n2)cc1 (single isomer, unassigned) [Compound 24, N-(4-(1-((5-cyclopropyl-1H-pyrazol-3-yl)amino)-1-oxopropan-2-yl)benzyl)acrylamide]	236	–	50 to 500
C=CC(=O)NCc1ccc(C(C)C(=O)Nc2cc(C3CC3)[nH]n2)cc1 (single isomer, unassigned) [Compound 25, N-(4-(1-((5-cyclopropyl-1H-pyrazol-3-yl)amino)-1-oxopropan-2-yl)benzyl)acrylamide]	–	–	> 500
CC(C(=O)Nc1cc(C2CC2)[nH]n1)c1ccc(-c2ccc(CNC(=O)/C=C/CN3CCOCC3)cc2)cc1 (stereo not shown) [Compound 15, (E)-N-((4′-(1-((5-cyclopropyl-1H-pyrazol-3-yl)amino)-1-oxopropan-2-yl)-[1,1′-biphenyl]-4-yl)methyl)-4-morpholinobut-2-enamide]	257	3660	< 50
C=CC(=O)NCc1ccc(C(C)C(=O)Nc2cc(C3CC3)[nH]n2)cn1 (stereo not shown) [Compound 26, N-((5-(1-((5-cyclopropyl-1H-pyrazol-3-yl)amino)-1-oxopropan-2-yl)pyridin-2-yl)methyl)acrylamide]	328	–	50 to 500

Now from value to compound:

IC50 (CDK13) [nM]	IC50 (CDK7) [nM]	Kd (CDK12) [nM]	SMILES
24	11400	50 to 500	C=CC(=O)Nc1ccc(-c2ccc(C(C)C(=O)Nc3cc(C4CC4)[nH]n3)cc2)cc1 (racemic) [Compound 1, N-(4′-(1-((5-cyclopropyl-1H-pyrazol-3-yl)amino)-1-oxopropan-2-yl)-[1,1′-biphenyl]-4-yl)acrylamide]
16.9	5450	> 500	C=CC(=O)NCc1ccc(-c2ccc(C(C)C(=O)Nc3cc(C4CC4)[nH]n3)cc2)cc1 (racemic) [Compound 9, N-((4′-(1-((5-cyclopropyl-1H-pyrazol-3-yl)amino)-1-oxopropan-2-yl)-[1,1′-biphenyl]-4-yl)methyl)acrylamide]
18	1900	–	C=CC(=O)Nc1ccc(-c2ccc(C(C)C(=O)Nc3cc(C4CC4)[nH]n3)cc2)cc1 (single isomer, unassigned) [Compound 3, N-(4′-(1-((5-cyclopropyl-1H-pyrazol-3-yl)amino)-1-oxopropan-2-yl)-[1,1′-biphenyl]-4-yl)acrylamide]
5	1020	< 50	CC(C(=O)Nc1cc(C2CC2)[nH]n1)c1ccc(-c2ccc(NC(=O)/C=C/CN3CCOCC3)nc2)cc1 (single isomer, unassigned) [Compound 7, (E)-N-(5-(4-(1-((5-cyclopropyl-1H-pyrazol-3-yl)amino)-1-oxopropan-2-yl)phenyl)pyridin-2-yl)-4-morpholinobut-2-enamide]
96	2120	–	C=CC(=O)NCc1ccc(-c2ccc(C(C)C(=O)Nc3cc(C4CC4)[nH]n3)cc2)cc1 (single isomer, unassigned) [Compound 11, N-((4′-(1-((5-cyclopropyl-1H-pyrazol-3-yl)amino)-1-oxopropan-2-yl)-[1,1′-biphenyl]-4-yl)methyl)acrylamide]
3.9	1120	< 50	CC(C(=O)Nc1cc(C2CC2)[nH]n1)c1ccc(-c2ccc(CNC(=O)/C=C/CN3CCOCC3)nc2)cc1 (single isomer, unassigned) [Compound 14, (E)-N-((5-(4-(1-((5-cyclopropyl-1H-pyrazol-3-yl)amino)-1-oxopropan-2-yl)phenyl)pyridin-2-yl)methyl)-4-morpholinobut-2-enamide]
212	> 10000	> 500	CC(C(=O)Nc1cc(C2CC2)[nH]n1)c1ccc(-c2ccc(CNC(=O)/C=C/CN3CCOCC3)cc2)cc1 (single isomer, unassigned) [Compound 16, (E)-N-((4′-(1-((5-cyclopropyl-1H-pyrazol-3-yl)amino)-1-oxopropan-2-yl)-[1,1′-biphenyl]-4-yl)methyl)-4-morpholinobut-2-enamide]
53.6	1560	< 50	CC(C(=O)Nc1cc(C2CC2)[nH]n1)c1ccc(-c2ccc(CNC(=O)/C=C/CN3CCOCC3)cc2)cc1 (single isomer, unassigned) [Compound 17, (E)-N-((4′-(1-((5-cyclopropyl-1H-pyrazol-3-yl)amino)-1-oxopropan-2-yl)-[1,1′-biphenyl]-4-yl)methyl)-4-morpholinobut-2-enamide]
4	–	–	C=CC(=O)NCc1ccc(-c2ccc(C(C)C(=O)Nc3cc(C4CC4)[nH]n3)cn2)cn1 (stereo not shown) [Compound 4, N-((5-(1-((5-cyclopropyl-1H-pyrazol-3-yl)amino)-1-oxopropan-2-yl)[2,3′-bipyridin]-6′-yl)methyl)acrylamide]
24	1700	–	CC(C(=O)Nc1cc(C2CC2)[nH]n1)c1ccc(-c2ccc(NC(=O)/C=C/CN3CCOCC3)nc2)cc1 (stereo not shown) [Compound 5, (E)-N-(5-(4-(1-((5-cyclopropyl-1H-pyrazol-3-yl)amino)-1-oxopropan-2-yl)phenyl)pyridin-2-yl)-4-morpholinobut-2-enamide]
60.8	–	< 50	CC(C(=O)Nc1cc(C2CC2)[nH]n1)c1ccc(-c2ccc(NC(=O)/C=C/CN3CCOCC3)cc2)cc1 (stereo not shown) [Compound 12, (E)-N-(4′-(1-((5-cyclopropyl-1H-pyrazol-3-yl)amino)-1-oxopropan-2-yl)-[1,1′-biphenyl]-4-yl)-4-morpholinobut-2-enamide]
13	–	< 50	C=CC(=O)NC(CC)c1ccc(-c2ccc([C@H](C)C(=O)Nc3cc(C4CC4)[nH]n3)cc2)cn1 (stereo partly drawn) [Compound 19, N-(1-(5-(4-((S)-1-((5-cyclopropyl-1H-pyrazol-3-yl)amino)-1-oxopropan-2-yl)phenyl)pyridin-2-yl)propyl)acrylamide]
